Measurements from patent publication US7718641B2, “Pyrrolo [3,4-H] isoquinoline compounds and methods for modulating gated ion channels” (Aros Pharma ApS, priority 2005, dated 2010).

Legend:
[1] = Plasma level after administration in the formalin experiments; assay type: in vivo; details: plasma level 1.5 h after compound administration, i.p., rat
[2] = system: CFA-induced thermal hyperalgesia; test: CFA model, thermal hyperalgesia (Hargreaves plantar test); assay type: in vivo, rat; details: CFA 48 h prior
Description: Assessment of thermal hyperalgesia: Baseline and post-treatment withdrawal latencies to a noxious thermal stimulus were measured according to Hargreaves (Hargreaves et al., 1988) using a plantar test analgesia meter (IITC, Woodland Hills, Calif., model # 336). The stimulus intensity was set at 30% of maximum output and the cut-off time was set at 30 seconds. Rats were placed on a glass plate warmed to 28° C. and allowed to habituate to the testing chambers for a minimum of 15 minutes prior to each testing session. The thermal stimulus was applied to the plantar surface of the paw, and the mean latency of three readings on each paw was used as the latency value for each time point. Thermal thresholds were defined as the latency in seconds to the first pain behavior, which includes nocifensive paw withdrawal, flinching, biting and/or licking of the stimulated paw. The mean and standard error of the mean (SEM) were determined for the injured and normal paws for each treatment group.
For comparison, results with morphine (6 mg/kg sc) and indomethacin (30 mg/kg po) are shown. […] Data are expressed as mean±SEM, (n=10). **P<0.01, vs. baseline.

heteromeric hASIC1a+3 = biological target: T1, heteromeric hASIC1a+3 (Homo sapiens, UniProt P78348+Q9UHC3); test: Two-electrode voltage clamp in Xenopus laevis oocytes expressing heteromeric hASIC1a+3; assay type: cell-based; parameters: expressed in transfected cells; details: 30 μM, OpusExpress
T1 sequence (P78348 1-528): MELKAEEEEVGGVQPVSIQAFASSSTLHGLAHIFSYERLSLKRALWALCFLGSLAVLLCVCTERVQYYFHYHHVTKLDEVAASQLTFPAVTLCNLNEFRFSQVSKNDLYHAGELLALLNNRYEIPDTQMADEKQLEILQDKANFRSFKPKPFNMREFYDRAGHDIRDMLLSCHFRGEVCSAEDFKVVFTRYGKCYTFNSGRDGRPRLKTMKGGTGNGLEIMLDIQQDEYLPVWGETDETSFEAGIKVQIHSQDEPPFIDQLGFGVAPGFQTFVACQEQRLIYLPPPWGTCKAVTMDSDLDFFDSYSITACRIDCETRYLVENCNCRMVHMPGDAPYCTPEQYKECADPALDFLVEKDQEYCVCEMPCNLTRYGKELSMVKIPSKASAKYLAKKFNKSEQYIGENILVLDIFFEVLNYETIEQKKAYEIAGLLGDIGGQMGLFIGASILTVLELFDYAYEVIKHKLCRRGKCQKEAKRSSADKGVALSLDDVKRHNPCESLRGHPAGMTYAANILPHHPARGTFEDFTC
T1 sequence (Q9UHC3 1-531): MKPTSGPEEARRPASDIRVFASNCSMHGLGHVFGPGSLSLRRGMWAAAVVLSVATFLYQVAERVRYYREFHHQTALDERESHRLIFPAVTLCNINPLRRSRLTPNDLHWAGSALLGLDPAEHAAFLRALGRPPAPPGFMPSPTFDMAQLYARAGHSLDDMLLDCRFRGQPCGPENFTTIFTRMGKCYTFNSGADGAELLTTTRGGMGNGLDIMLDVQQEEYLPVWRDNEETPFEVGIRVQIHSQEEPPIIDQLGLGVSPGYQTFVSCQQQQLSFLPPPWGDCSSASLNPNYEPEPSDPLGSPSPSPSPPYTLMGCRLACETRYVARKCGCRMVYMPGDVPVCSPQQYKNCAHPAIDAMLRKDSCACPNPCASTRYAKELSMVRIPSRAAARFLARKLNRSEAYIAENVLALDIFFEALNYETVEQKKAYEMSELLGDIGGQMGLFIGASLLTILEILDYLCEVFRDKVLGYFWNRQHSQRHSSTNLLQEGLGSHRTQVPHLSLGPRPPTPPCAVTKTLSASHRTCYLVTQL
Description: Two-electrode voltage clamp electrophysiological assays in Xenopus laevis oocytes expressing gated ion channels are performed as follows:
Oocytes are surgically removed from adult Xenopus laevis and treated for 2 h at room temperature with 1 mg/ml type I collagenase (Sigma) in Barth's solution under mild agitation. Selected oocytes at stage IV-V are defolliculated manually before nuclear microinjection of 2.5-5 ng of a suitable expression vector, such as pcDNA3, comprising the nucleotide sequence encoding a gated ion channel subunit protein. In such an experiment, the oocytes express homomultimeric proton-gated ion channels on their surface. In an alternate experiment, one, two, three or more vectors comprising the coding sequences for distinct gated ion channel subunits are co-injected in the oocyte nuclei. […] After 2-4 days of expression at 19° C. in Barth's solution containing […] gentamicin and 1.8 mM CaCl2, gated ion channels are activated by applying an acidic solution (pH <7) and currents are recorded in a two electrode voltage-clamp configuration, using an OC-725B amplifier (Warner Instruments). Currents are acquired and digitized at 500 Hz on an Apple Imac G3 computer with an A/D NB-MIO-16XL interface (National Instruments) and recorded traces are post-filtered at 100 Hz in Axograph (Axon Instruments) (Neher, E. and Sakmann, B. (1976) Nature 260:799-802). […]

- effect on inward currents elicited by pH 6.5, heteromeric hASIC1a+3 (heteromeric hASIC1a+3): effectively modulates the activity
SMILES: COc1ccc(F)cc1-c1cc2c(c3c1CCN(C)C3)NC(=O)/C2=N/O [Compound A, 5-(5-fluoro-2-methoxyphenyl)-6,7,8,9-tetrahydro-3-(hydroxyimino)-8-methyl-1H-pyrrolo[3,2-h]isoquinoline-2(3H)-one]
- relationship between dose and plasma level [1]: linear relationship between dose and plasma exposure
- reversal of CFA-induced thermal hyperalgesia ([2]; 3 h after i.p. administration, dose-dependent): fully reversing the thermal hyperalgesia
- ED50 ([2]; Rattus norvegicus, ip, measured 3 h after i.p. administration, n=10, read-out: ED50, reversal of CFA-induced thermal hyperalgesia): 6.5 mg/kg
